Assay results as given in US20220146526A1, “METHOD FOR EVALUATING SAMPLE, ANALYSIS METHOD, METHOD FOR DETECTING DEGRADED SAMPLE, MARKER FOR DETECTING DEGRADED BLOOD PLASMA SAMPLE, AND MARKER FOR DETECTING DEGRADED SERUM SAMPLE” (SHIMADZU CORPORATION, priority 2019, published 2022).
Structures can show the parent of a compound that is named as a salt.

Tests used:
Format in all cases: physicochemical, human
[1] = LC/MS of serum sample: time from blood collection to centrifugation (Table J)
Description: (§1) After standing, the blood sample was subjected to centrifugation under a condition of room temperature, 3500 rpm, and 5 minutes. […] After centrifugation, the blood-collecting vessel was left to stand at room temperature, and the serum was isolated during this time. Here, in order to investigate how the detection intensity of molecules contained in the sample was affected in cases where the time during which the blood-collecting vessel was left at room temperature was set to 1 hour and 6 hours as compared to that in a case where the time was set to 30 minutes, preparations were performed under the respective conditions of 30 minutes, 1 hour, and 6 hours. The obtained serum sample was frozen and stored. Here, in order to investigate how the detection intensity of molecules contained in the sample was affected in cases where freezing and thawing was performed 4 times, 6 times, and 10 times after freezing as compared to that in a case where freezing and thawing was performed 2 times after freezing, freezing and thawing was performed under the respective conditions of 2, 4, 6, and 10 times.
(§2) Frozen blood plasma samples and serum samples were subjected to GC/MS or LC/MS. In GC/MS, the blood plasma samples and serum samples were subjected to methoxymation and trimethylsilylation and then introduced to GC-MS.
(§3) Analysis column: Discovery HS F5-3 (inner diameter of 2.1 mm, length of 150 mm, film thickness of 3 μm) (Sigma-Aldrich)
(§4) Column temperature: 40° C.
(§5) (A) 0.1% formic acid (dissolved in water)
(§6) (B) 0.1% formic acid (dissolved in acetonitrile)
(§7) Flow velocity: 0.25 mL/min
(§8) Ionization method: electrospray
(§9) Temperature: • Desolvation Line (DL) temperature: 250° C. • Heat block temperature: 400° C. • Interface temperature: 300° C.
(§10) Gas flow rate: • Nebulizer gas flow rate: 3.0 L/min • Drying gas flow rate: 10.0 L/min • Heating gas flow rate: 10.0 L/min
(§11) Mode: multiple reaction monitoring (MRM)
The rate of increase or decrease in Table J is the value of detection intensity relative to 1 that is the detection intensity in a case where the time from blood collection to centrifugation is set to 15 minutes.

[2] = LC/MS of serum sample: number of times of freezing and thawing (Table M); parameters: key to Rate of increase or decrease: detection intensity relative to 1 at 2 freeze-thaw cycles
Description: as §1, §2, §3, §4, §5, §6, §7, §8, §9, §10, §11
The rate of increase or decrease in Table M is the value of detection intensity relative to 1 that is the detection intensity in a case where the number of times of freezing and thawing is set to 2 times.

[3] = GC/MS of blood plasma sample: time from blood collection to centrifugation (Table A); details: blood collection to centrifugation; for Rate of increase or decrease: detection intensity relative to 1 at 15 minutes; for Increase or decrease: detection intensity
Description: (§12) At room temperature, 5 mL of blood from a healthy subject was taken into a blood-collecting vessel containing EDTA, and the blood-collecting vessel was inverted for mixing, then cooled, and allowed to stand at 4° C. Here, in order to investigate how the detection intensity of molecules contained in the sample was affected in a case where the time to cooling was set to 5 minutes or more as compared to that in a case where the time to cooling was set to 1 minute or less, preparations were performed under both the former condition and the latter condition. After standing, the blood sample was subjected to centrifugation under a condition of 4° C., 3000 rpm, and 15 minutes. […] After centrifugation, the blood-collecting vessel was left to stand at room temperature for 30 minutes, and the blood plasma was isolated during this 30 minutes. The obtained blood plasma sample was frozen and stored. Here, in order to investigate how the detection intensity of molecules contained in the sample was affected in cases where freezing and thawing was performed 4 times, 6 times, and 10 times after freezing as compared to that in a case where freezing and thawing was performed 2 times after freezing, freezing and thawing was performed under the respective conditions of 2, 4, 6, and 10 times.
as §2
(§13) GC/MS was conducted using GCMS·TQ8040 (Shimadzu Corporation) that was a GC·MS equipped with AOC·20i (Shimadzu Corporation) as an autosampler.
(§14) Column: BPX5 (inner diameter of 0.25 mm, length of 30 m, and film thickness of 0.25 μm) (SGE)
(§15) Column temperature: maintained at 60° C. for 2 minutes, then raised at 15° C./min, and maintained at 330° C. for 3 minutes.
(§16) Inlet temperature: 250° C.
(§17) Carrier gas control mode: constant linear velocity of 39.0 cm/sec
(§18) Sample introduction method: split (split ratio of 30:1) Injection volume: 1 μL
(§19) Ionization method: electron ionization
(§20) Ionization current: 60 μA
(§21) Interface temperature: 280° C.
(§22) Ion source temperature: 200° C.
as §11
The rate of increase or decrease in Table A is the value of detection intensity relative to 1 that is the detection intensity in a case where the time from blood collection to centrifugation is set to 15 minutes.

[4] = GC/MS of serum sample: time from blood collection to centrifugation (Table G); details: blood collection to centrifugation; for Rate of increase or decrease: detection intensity relative to 1 at 15 minutes; for Increase or decrease: detection intensity
In short: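 Blood was held for varying times before centrifugation (room temperature, 3500 rpm, 5 min); serum was frozen, then methoxymated and trimethylsilylated for GC/MS with electron ionization in MRM mode. Values are detection intensities relative to the 15-minute collection-to-centrifugation condition, set as 1.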

[5] = GC/MS of blood plasma sample: number of times of freezing and thawing (Table C); details: for Rate of increase or decrease: detection intensity relative to 1 at 2 times; for Increase or decrease: detection intensity
Description: as §12, §2, §13, §14, §15, §16, §17, §18, §19, §20, §21, §22, §11
The rate of increase or decrease in Table C is the value of detection intensity relative to 1 that is the detection intensity in a case where the number of times of freezing and thawing is set to 2 times.

[6] = LC/MS of blood plasma sample: number of times of freezing and thawing (Table F)
Description: as §12, §2, §3, §4, §5, §6, §7, §8, §9, §10, §11
The rate of increase or decrease in Table F is the value of detection intensity relative to 1 that is the detection intensity in a case where the number of times of freezing and thawing is set to 2 times.

[7] = LC/MS of blood plasma sample: time from blood collection to centrifugation (Table D); details: blood collection to centrifugation
Description: as §12, §2, §3, §4, §5, §6, §7, §8, §9, §10, §11
The rate of increase or decrease in Table D is the value of detection intensity relative to 1 that is the detection intensity in a case where the time from blood collection to centrifugation is set to 15 minutes.

[8] = GC/MS of serum sample: time from centrifugation to isolation (Table H); parameters: key to Rate of increase or decrease / Rate of increase or decrease (first value, increase): detection intensity relative to 1 at 30 min centrifugation-to-isolation
In short: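 Blood was centrifuged at room temperature, 3500 rpm, 5 min, and the vessel left at room temperature for 30 min, 1 h or 6 h before serum isolation. Serum was methoxymated, trimethylsilylated and analysed by GC/MS with electron ionization in MRM mode; intensities expressed relative to the 30-min condition (=1).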

[9] = GC/MS of serum sample: number of times of freezing and thawing (Table I); parameters: key to Rate of increase or decrease / Rate of increase or decrease (first value, increase): detection intensity relative to 2 freeze-thaw cycles = 1
In short: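 Serum was isolated after centrifugation at room temperature (3500 rpm, 5 min), frozen, and put through 2, 4, 6 or 10 freeze–thaw cycles. Samples were methoxymated and trimethylsilylated, then run by electron-ionization GC/MS in MRM mode on a BPX5 column (60 to 330 °C). Detection intensity is given relative to the 2-cycle sample, set as 1.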

[10] = freezing and thawing 4 times vs 2 times
[11] = freezing and thawing 6 times vs 2 times

N[C@@H](CO)C(=O)O [Serine, serine]
Rate of increase or decrease ([1]; after 6 hours from blood collection to centrifugation, detection intensity relative to 1 at 15 minutes): 1.44
Increase or decrease ([1]; serum sample, LC/MS, detection intensity vs 15 minutes from blood collection to centrifugation): Increase
Time when compound is affected ([1]; serum sample, LC/MS, time from blood collection to centrifugation, detection intensity changed by 30% or more vs 15 minutes): After 6 hours
Rate of increase or decrease ([2]; 6 times of freezing and thawing, detection intensity relative to 1 at 2 times): 0.66
Number of times when compound is affected ([2]; serum sample, LC/MS, detection intensity changed by 30% or more vs 2 times of freezing and thawing): 6 times
Increase or decrease ([2]; serum sample, LC/MS, detection intensity vs 2 times of freezing and thawing): Decrease

O=C1O[C@H]([C@@H](O)CO)C(O)=C1O [Ascorbic acid]
Rate of increase or decrease ([3]; after 4 hours): 1.77
Increase or decrease ([3]; after 4 hours vs 15 minutes): Increase
Rate of increase or decrease ([4]; after 4 hours): 0.62
Increase or decrease ([4]; after 4 hours vs 15 minutes): Decrease
Rate of increase or decrease ([5]; freezing and thawing 4 times): 1.41
Increase or decrease [5, 10]: Increase

N[C@@H](CCSC[C@H](N)C(=O)O)C(=O)O [Cystathionine]
Rate of increase or decrease ([6]; detection intensity relative to 1 at 2 times, freezing and thawing 4 times): 1.52
Increase or decrease ([6]; detection intensity, freezing and thawing 4 times vs 2 times): Increase
Rate of increase or decrease ([7]; detection intensity relative to 1 at 15 minutes, after 12 hours): 1.44
Increase or decrease ([7]; detection intensity, after 12 hours vs 15 minutes): Increase

O=S(=O)(O)Oc1c[nH]c2ccccc12 [Indoxyl sulfate]
Rate of increase or decrease ([3]; after 12 hours): 1.50
Increase or decrease ([3]; after 12 hours vs 15 minutes): Increase
Rate of increase or decrease ([5]; freezing and thawing 6 times): 0.68
Increase or decrease [5, 11]: Decrease

CCCCCCCCCCCCCCCCCC(=O)OCC(O)CO (stereo not shown) [Monostearin]
Rate of increase or decrease ([3]; after 12 hours): 1.35
Increase or decrease ([3]; after 12 hours vs 15 minutes): Increase
Rate of increase or decrease ([8]; detection intensity relative to 1 at 30 minutes, after 6 hours): 2.08
Increase or decrease ([8]; detection intensity, after 6 hours vs 30 minutes): Increase
Rate of increase or decrease ([4]; after 4 hours): 1.98
Increase or decrease ([4]; after 4 hours vs 15 minutes): Increase
Rate of increase or decrease ([9]; 10 times of freezing and thawing, detection intensity relative to 1 at 2 times): 0.60
Number of times when compound is affected ([9]; serum sample, GC/MS, detection intensity changed by 30% or more vs 2 times of freezing and thawing): 10 times
Increase or decrease ([9]; serum sample, GC/MS, detection intensity vs 2 times of freezing and thawing): Decrease
Rate of increase or decrease ([5]; freezing and thawing 6 times): 0.67
Increase or decrease [5, 11]: Decrease

O=C(O)[C@H](O)[C@H](O)[C@H](O)CO [Ribonic acid]
Rate of increase or decrease ([3]; after 4 hours): 0.17
Increase or decrease ([3]; after 4 hours vs 15 minutes): Decrease
Rate of increase or decrease ([4]; after 12 hours): 1.46
Increase or decrease ([4]; after 12 hours vs 15 minutes): Increase
Rate of increase or decrease ([5]; freezing and thawing 4 times): 1.62
Increase or decrease [5, 10]: Increase
